Where two headings read alike, the source gives them in different places.
What was measured:
Assay in all cases: Kinase binding screen
Conditions in all cases: read-out: Percent Control at 100 nM Compound Concentration
[1] = biological target: ABL1(Y253F)-pho sphorylated (Homo sapiens (Human), UniProt P00519, Y253F)
ALK(C1156Y) = ALK(C1156Y) (Homo sapiens (Human), UniProt Q9UM73, C1156Y)
BIKE = BIKE (Homo sapiens (Human), UniProt Q9NSY1)
BMX = BMX (Homo sapiens (Human), UniProt P51813)
CAMKK1 = CAMKK1 (Homo sapiens (Human), UniProt Q8N5S9)
Chain of CAMKK1 (Q8N5S9 whole entry): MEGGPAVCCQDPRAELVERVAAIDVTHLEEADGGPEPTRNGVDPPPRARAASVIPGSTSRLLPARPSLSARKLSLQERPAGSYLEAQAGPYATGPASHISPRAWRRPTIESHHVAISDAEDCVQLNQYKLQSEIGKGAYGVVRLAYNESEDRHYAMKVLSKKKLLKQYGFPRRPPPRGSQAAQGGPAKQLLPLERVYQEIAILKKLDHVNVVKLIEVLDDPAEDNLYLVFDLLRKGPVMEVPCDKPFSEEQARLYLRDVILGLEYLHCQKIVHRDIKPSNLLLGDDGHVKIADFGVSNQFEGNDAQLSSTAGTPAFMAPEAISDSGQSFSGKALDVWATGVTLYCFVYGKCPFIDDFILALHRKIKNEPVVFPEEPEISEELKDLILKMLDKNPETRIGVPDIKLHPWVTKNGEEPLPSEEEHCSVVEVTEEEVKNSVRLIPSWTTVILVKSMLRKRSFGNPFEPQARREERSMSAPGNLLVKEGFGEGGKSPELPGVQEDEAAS

EGFR(L858R,T790M) = EGFR(L858R,T790M) (Homo sapiens (Human), UniProt P00533, L858R/T790M)
EPHB2 = EPHB2 (Homo sapiens (Human), UniProt P29323)
FLT3(D835Y) = FLT3(D835Y) (Homo sapiens (Human), UniProt P36888, D835Y)
GRK2 = GRK2 (Homo sapiens (Human), UniProt P25098)
Chain of GRK2 (P25098 whole entry): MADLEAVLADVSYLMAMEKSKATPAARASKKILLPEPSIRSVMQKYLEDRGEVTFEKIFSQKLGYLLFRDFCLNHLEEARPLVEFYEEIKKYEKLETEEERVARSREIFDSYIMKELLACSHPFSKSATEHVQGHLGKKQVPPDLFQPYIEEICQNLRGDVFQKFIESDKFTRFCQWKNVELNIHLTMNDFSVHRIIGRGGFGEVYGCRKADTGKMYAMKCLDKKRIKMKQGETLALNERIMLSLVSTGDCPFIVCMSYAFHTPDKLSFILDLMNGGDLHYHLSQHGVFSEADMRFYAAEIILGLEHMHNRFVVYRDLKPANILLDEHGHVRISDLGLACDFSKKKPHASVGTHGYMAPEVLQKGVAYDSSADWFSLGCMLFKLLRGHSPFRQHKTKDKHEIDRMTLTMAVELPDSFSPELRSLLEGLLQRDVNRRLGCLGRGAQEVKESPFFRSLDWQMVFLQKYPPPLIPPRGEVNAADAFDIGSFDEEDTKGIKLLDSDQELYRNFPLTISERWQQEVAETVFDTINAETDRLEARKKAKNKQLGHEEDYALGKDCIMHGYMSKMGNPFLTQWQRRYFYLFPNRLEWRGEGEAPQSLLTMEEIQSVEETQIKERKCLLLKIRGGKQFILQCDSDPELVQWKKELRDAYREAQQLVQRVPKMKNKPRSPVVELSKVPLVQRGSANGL

GRK3 = GRK3 (Homo sapiens (Human), UniProt P35626)
IKK-beta = IKK-beta (Homo sapiens (Human), UniProt O14920)
[2] = biological target: JAK1(JH1domain-catalytic) (Homo sapiens (Human), UniProt P23458)
Chain of JAK1(JH1domain-catalytic) (P23458 875-1153): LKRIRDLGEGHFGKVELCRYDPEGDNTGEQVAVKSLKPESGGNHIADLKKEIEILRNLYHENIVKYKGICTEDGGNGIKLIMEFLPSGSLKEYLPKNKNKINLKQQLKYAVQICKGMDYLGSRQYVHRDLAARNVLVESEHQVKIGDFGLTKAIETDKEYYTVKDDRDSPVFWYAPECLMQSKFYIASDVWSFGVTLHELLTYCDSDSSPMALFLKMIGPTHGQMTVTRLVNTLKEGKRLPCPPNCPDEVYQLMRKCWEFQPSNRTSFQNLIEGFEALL

[3] = biological target: JAK2(JH1domain-catalytic) (Homo sapiens (Human), UniProt O60674)
LATS1 = LATS1 (Homo sapiens (Human), UniProt O95835)
LKB1 = LKB1 (Homo sapiens (Human), UniProt Q15831)
MAP4K3 = MAP4K3 (Homo sapiens (Human), UniProt Q8IVH8)
MARK4 = MARK4 (Homo sapiens (Human), UniProt Q96L34)
NEK7 = NEK7 (Homo sapiens (Human), UniProt Q8TDX7)
Chain of NEK7 (Q8TDX7 whole entry): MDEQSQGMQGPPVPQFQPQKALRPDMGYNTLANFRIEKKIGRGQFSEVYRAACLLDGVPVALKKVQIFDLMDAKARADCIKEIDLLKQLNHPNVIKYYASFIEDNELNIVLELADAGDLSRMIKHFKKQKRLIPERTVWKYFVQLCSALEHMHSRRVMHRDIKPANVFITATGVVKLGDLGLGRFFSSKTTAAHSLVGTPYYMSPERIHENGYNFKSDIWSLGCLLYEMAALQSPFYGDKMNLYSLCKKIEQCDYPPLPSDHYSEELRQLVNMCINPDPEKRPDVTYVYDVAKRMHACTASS

OSR1 = OSR1 (Homo sapiens (Human), UniProt O95747)
PIK3C2G = PIK3C2G (Homo sapiens (Human), UniProt O75747)
PKAC-alpha = PKAC-alpha (Homo sapiens (Human), UniProt P17612)
PRKCD = PRKCD (Homo sapiens (Human), UniProt Q05655)
PRKCE = PRKCE (Homo sapiens (Human), UniProt Q02156)
[4] = biological target: RPS6KA4(Kin.Dom.1-N-terminal) (Homo sapiens (Human), UniProt O75676)
Chain of RPS6KA4(Kin.Dom.1-N-terminal) (O75676 33-301): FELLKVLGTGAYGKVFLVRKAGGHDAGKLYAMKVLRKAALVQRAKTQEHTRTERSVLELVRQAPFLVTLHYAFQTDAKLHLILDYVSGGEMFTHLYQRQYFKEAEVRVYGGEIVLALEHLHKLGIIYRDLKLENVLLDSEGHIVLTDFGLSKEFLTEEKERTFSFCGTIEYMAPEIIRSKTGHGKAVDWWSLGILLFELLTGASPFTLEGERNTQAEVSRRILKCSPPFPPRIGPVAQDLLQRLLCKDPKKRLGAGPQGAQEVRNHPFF

[5] = biological target: RSK4(Kin.Dom.2-C-terminal) (Homo sapiens (Human), UniProt Q9UK32)
SRC = SRC (Homo sapiens (Human), UniProt P12931)
TNIK = TNIK (Homo sapiens (Human), UniProt Q9UKE5)
Chain of TNIK (Q9UKE5 whole entry): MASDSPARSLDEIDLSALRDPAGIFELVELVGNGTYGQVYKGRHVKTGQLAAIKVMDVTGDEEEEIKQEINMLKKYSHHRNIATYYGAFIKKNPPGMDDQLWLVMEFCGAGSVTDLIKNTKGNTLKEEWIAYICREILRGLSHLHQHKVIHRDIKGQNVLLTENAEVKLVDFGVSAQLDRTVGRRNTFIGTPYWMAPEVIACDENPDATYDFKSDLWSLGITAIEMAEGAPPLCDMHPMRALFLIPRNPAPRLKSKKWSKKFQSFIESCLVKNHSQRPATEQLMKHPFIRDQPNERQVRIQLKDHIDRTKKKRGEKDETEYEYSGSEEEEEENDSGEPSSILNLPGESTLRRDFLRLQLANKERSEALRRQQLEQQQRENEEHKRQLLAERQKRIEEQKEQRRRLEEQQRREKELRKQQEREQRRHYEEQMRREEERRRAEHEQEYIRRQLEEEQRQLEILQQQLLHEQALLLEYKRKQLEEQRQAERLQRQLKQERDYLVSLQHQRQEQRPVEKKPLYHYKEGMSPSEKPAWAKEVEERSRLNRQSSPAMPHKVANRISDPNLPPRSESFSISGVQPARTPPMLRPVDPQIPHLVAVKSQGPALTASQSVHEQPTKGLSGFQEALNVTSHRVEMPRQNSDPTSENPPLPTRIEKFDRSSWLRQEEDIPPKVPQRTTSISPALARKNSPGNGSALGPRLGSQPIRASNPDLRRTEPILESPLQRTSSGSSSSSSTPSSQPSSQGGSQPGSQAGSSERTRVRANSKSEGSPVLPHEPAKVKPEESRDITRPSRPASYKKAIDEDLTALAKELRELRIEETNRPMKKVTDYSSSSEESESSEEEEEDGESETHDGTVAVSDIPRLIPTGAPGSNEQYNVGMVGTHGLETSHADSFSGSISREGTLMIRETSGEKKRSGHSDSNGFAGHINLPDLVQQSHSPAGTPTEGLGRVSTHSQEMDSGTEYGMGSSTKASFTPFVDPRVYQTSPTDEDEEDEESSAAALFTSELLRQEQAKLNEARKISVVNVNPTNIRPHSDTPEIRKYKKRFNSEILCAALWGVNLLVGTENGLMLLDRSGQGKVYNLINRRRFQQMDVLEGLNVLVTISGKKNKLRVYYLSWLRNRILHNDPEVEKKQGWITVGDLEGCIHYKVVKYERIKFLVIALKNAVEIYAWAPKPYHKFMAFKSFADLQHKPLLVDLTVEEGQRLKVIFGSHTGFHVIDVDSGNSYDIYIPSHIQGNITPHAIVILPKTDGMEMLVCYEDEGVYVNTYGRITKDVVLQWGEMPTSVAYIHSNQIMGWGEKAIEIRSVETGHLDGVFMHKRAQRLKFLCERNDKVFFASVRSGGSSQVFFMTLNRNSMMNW

TNK2 = TNK2 (Homo sapiens (Human), UniProt Q07912)

Chain of ALK(C1156Y) (Q9UM73 19-1620 C1156Y): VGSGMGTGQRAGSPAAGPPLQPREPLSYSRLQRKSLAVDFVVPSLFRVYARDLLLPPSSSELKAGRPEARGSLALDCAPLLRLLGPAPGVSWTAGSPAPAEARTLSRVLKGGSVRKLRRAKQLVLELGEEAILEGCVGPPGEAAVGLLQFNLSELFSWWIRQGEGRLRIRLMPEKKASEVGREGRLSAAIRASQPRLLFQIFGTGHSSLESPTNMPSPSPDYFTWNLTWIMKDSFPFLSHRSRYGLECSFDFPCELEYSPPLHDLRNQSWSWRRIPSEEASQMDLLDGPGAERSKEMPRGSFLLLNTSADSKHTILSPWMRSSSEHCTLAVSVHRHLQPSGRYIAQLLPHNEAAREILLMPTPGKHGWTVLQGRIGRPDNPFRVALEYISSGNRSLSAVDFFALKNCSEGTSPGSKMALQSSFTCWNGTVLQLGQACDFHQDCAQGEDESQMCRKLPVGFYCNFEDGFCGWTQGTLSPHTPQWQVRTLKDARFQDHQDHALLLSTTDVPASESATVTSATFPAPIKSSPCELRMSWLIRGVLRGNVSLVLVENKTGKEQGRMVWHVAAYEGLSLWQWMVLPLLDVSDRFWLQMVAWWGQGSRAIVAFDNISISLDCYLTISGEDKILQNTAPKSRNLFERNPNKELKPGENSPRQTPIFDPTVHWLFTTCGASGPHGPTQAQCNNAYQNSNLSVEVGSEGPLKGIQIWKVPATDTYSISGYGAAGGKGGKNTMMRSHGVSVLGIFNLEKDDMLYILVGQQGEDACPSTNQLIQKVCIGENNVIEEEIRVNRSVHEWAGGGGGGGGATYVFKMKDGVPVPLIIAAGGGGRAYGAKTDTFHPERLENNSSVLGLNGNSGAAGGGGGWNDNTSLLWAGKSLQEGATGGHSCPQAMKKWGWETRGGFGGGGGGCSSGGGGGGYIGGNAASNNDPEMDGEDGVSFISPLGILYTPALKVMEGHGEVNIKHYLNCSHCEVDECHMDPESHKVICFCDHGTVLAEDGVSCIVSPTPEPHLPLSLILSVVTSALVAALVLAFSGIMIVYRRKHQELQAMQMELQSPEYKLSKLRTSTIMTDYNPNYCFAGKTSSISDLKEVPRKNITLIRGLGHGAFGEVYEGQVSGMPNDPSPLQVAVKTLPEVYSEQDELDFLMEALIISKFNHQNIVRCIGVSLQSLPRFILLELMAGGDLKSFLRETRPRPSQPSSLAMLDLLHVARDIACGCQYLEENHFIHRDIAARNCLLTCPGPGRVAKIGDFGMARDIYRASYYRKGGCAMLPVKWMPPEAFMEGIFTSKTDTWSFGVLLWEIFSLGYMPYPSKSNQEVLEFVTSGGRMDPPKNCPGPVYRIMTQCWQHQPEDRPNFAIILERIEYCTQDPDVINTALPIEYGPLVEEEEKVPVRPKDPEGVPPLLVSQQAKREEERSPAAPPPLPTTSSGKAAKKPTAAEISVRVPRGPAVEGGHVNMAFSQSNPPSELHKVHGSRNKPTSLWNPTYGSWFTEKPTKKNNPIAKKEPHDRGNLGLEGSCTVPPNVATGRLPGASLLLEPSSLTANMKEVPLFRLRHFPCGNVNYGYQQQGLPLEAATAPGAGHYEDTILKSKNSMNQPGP

CN(C[C@@H](O)Cc1ccccc1)C(=O)c1cncc(C#Cc2cnn(C(F)F)c2)c1 [Example 2, (S)-5-((1-(difluoromethyl)-1H-pyrazol-4-yl)ethynyl)-N-(2-hydroxy-3-phenylpropyl)-N-methylnicotinamide]
remaining activity at 0.1 µM ([1]; ABL1(Y253F)-pho sphorylated): 100% | remaining activity at 0.1 µM (ALK(C1156Y); ALK(C1156Y)): 100% | remaining activity at 0.1 µM (BIKE; BIKE): 100% | remaining activity at 0.1 µM (BMX; BMX): 100% | remaining activity at 0.1 µM (CAMKK1; CAMKK1): 100% | remaining activity at 0.1 µM (EGFR(L858R,T790M); EGFR(L858R,T790M)): 83% | remaining activity at 0.1 µM (EPHB2; EPHB2): 100% | remaining activity at 0.1 µM (FLT3(D835Y); FLT3(D835Y)): 100% | remaining activity at 0.1 µM (GRK2; GRK2): 96% | remaining activity at 0.1 µM (GRK3; GRK3): 82% | remaining activity at 0.1 µM (IKK-beta; IKK-beta): 96% | remaining activity at 0.1 µM ([2]; JAK1(JH1domain-catalytic)): 100% | remaining activity at 0.1 µM ([3]; JAK2(JH1domain-catalytic)): 100% | remaining activity at 0.1 µM (LATS1; LATS1): 100% | remaining activity at 0.1 µM (LKB1; LKB1): 70% | remaining activity at 0.1 µM (MAP4K3; MAP4K3): 100% | remaining activity at 0.1 µM (MARK4; MARK4): 91% | remaining activity at 0.1 µM (NEK7; NEK7): 100% | remaining activity at 0.1 µM (OSR1; OSR1): 88% | remaining activity at 0.1 µM (PIK3C2G; PIK3C2G): 85% | remaining activity at 0.1 µM (PKAC-alpha; PKAC-alpha): 94% | remaining activity at 0.1 µM (PRKCD; PRKCD): 98% | remaining activity at 0.1 µM (PRKCE; PRKCE): 72% | remaining activity at 0.1 µM ([4]; RPS6KA4(Kin.Dom.1-N-terminal)): 97% | remaining activity at 0.1 µM ([5]; RSK4(Kin.Dom.2-C-terminal)): 100% | remaining activity at 0.1 µM (SRC; SRC): 97% | remaining activity at 0.1 µM (TNIK; TNIK): 100% | remaining activity at 0.1 µM (TNK2; TNK2): 100%

CN(C[C@H](Cc1ccccc1)OP(=O)(O)O)C(=O)c1cncc(C#Cc2cnn(C(F)F)c2)c1 [Example 19, (S)-1-(5-((1-(difluoromethyl)-1H-pyrazol-4-yl)ethynyl)-N-methylnicotinamido)-3-phenylpropan-2-yl dihydrogen phosphate]
remaining activity at 0.1 µM [1]: 100% | remaining activity at 0.1 µM (ALK(C1156Y)): 100% | remaining activity at 0.1 µM (BIKE): 100% | remaining activity at 0.1 µM (BMX): 100% | remaining activity at 0.1 µM (CAMKK1): 100% | remaining activity at 0.1 µM (EGFR(L858R,T790M)): 94% | remaining activity at 0.1 µM (EPHB2): 100% | remaining activity at 0.1 µM (FLT3(D835Y)): 100% | remaining activity at 0.1 µM (GRK2): 79% | remaining activity at 0.1 µM (GRK3): 81% | remaining activity at 0.1 µM (IKK-beta): 96% | remaining activity at 0.1 µM [2]: 100% | remaining activity at 0.1 µM [3]: 100% | remaining activity at 0.1 µM (LATS1): 88% | remaining activity at 0.1 µM (LKB1): 79% | remaining activity at 0.1 µM (MAP4K3): 100% | remaining activity at 0.1 µM (MARK4): 94% | remaining activity at 0.1 µM (NEK7): 99% | remaining activity at 0.1 µM (OSR1): 89% | remaining activity at 0.1 µM (PIK3C2G): 78% | remaining activity at 0.1 µM (PKAC-alpha): 94% | remaining activity at 0.1 µM (PRKCD): 94% | remaining activity at 0.1 µM (PRKCE): 68% | remaining activity at 0.1 µM [4]: 100% | remaining activity at 0.1 µM [5]: 100% | remaining activity at 0.1 µM (SRC): 100% | remaining activity at 0.1 µM (TNIK): 100% | remaining activity at 0.1 µM (TNK2): 100%

From patent publication US11767310B2, “Nicotinamide RIPK1 inhibitors” (AbbVie Inc., priority 2021, dated 2023)
